Laboratory results published in PubChem BioAssay (NCI).
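How tested: cells in 96-well plates exposed to compound for 48 hours at five concentrations. Definition used: TGI = concentration required for complete inhibition of growth.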

Key:
Assay in all cases: growth of human tumour cells (NCI), 48 h
[1] = tested on: 786-0 renal
[2] = tested on: A549 NSCLC
[3] = tested on: ACHN renal
[4] = tested on: BT-549 breast
[5] = tested on: CAKI-1 renal
[6] = tested on: CCRF-CEM leukemia
[7] = tested on: COLO 205 colon
[8] = tested on: DU-145 prostate
[9] = tested on: EKVX NSCLC
[10] = tested on: HCC-2998 colon
[11] = tested on: HCT-116 colon
[12] = tested on: HCT-15 colon
[13] = tested on: HL-60(TB) leukemia
[14] = tested on: HOP-62 NSCLC
[15] = tested on: HS 578T breast
[16] = tested on: HT29 colon
[17] = tested on: IGROV1 ovarian
[18] = tested on: K-562 leukemia
[19] = tested on: KM12 colon
[20] = tested on: LOX IMVI melanoma
[21] = tested on: M14 melanoma
[22] = tested on: MALME-3M melanoma
[23] = tested on: MCF7 breast
[24] = tested on: MDA-MB-231 breast
[25] = tested on: MDA-MB-435
[26] = tested on: MDA-N
[27] = tested on: MOLT-4 leukemia
[28] = tested on: NCI-H226 lung
[29] = tested on: NCI-H23 lung
[30] = tested on: NCI-H522 lung
[31] = tested on: NCI/ADR-RES ovarian
[32] = tested on: OVCAR-3 ovarian
[33] = tested on: OVCAR-5 ovarian
[34] = tested on: OVCAR-8 ovarian
[35] = tested on: PC-3 prostate
[36] = tested on: RPMI-8226 leukemia
[37] = tested on: RXF 393 renal
[38] = tested on: SF-268 CNS
[39] = tested on: SF-295 CNS
[40] = tested on: SK-MEL-2 melanoma
[41] = tested on: SK-MEL-28 melanoma
[42] = tested on: SK-MEL-5 melanoma
[43] = tested on: SK-OV-3 ovarian
[44] = tested on: SN12C renal
[45] = tested on: SNB-19 CNS
[46] = tested on: SNB-75 CNS
[47] = tested on: SR leukemia
[48] = tested on: SW-620 colon
[49] = tested on: T-47D breast
[50] = tested on: TK-10 renal
[51] = tested on: U251 CNS
[52] = tested on: UACC-257 melanoma
[53] = tested on: UACC-62 melanoma
[54] = tested on: UO-31 renal
[55] = tested on: A498 renal
[56] = tested on: NCI-H460 lung
[57] = tested on: OVCAR-4 ovarian

Compound: COc1c2c(cc3occ(-c4ccc(CC=C(C)C)cc4)c(=O)c13)OC(C)(C)C=C2
- TGI [1]: > 100 µM
- TGI [2]: > 100 µM
- TGI [3]: > 100 µM
- TGI [4]: > 100 µM
- TGI [5]: > 100 µM
- TGI [6]: > 100 µM
- TGI [7]: > 100 µM
- TGI [8]: > 100 µM
- TGI [9]: > 100 µM
- TGI [10]: > 100 µM
- TGI [11]: > 100 µM
- TGI [12]: > 100 µM
- TGI [13]: 46.4 µM
- TGI [14]: > 100 µM
- TGI [15]: > 100 µM
- TGI [16]: > 100 µM
- TGI [17]: > 100 µM
- TGI [18]: > 100 µM
- TGI [19]: > 100 µM
- TGI [20]: > 100 µM
- TGI [21]: > 100 µM
- TGI [22]: > 100 µM
- TGI [23]: > 100 µM
- TGI [24]: > 100 µM
- TGI [25]: > 100 µM
- TGI [26]: > 100 µM
- TGI [27]: 52.1 µM
- TGI [28]: > 100 µM
- TGI [29]: > 100 µM
- TGI [30]: > 100 µM
- TGI [31]: > 100 µM
- TGI [32]: > 100 µM
- TGI [33]: > 100 µM
- TGI [34]: > 100 µM
- TGI [35]: > 100 µM
- TGI [36]: 50.3 µM
- TGI [37]: > 100 µM
- TGI [38]: > 100 µM
- TGI [39]: > 100 µM
- TGI [40]: 62.7 µM
- TGI [41]: > 100 µM
- TGI [42]: 48.9 µM
- TGI [43]: > 100 µM
- TGI [44]: > 100 µM
- TGI [45]: > 100 µM
- TGI [46]: > 100 µM
- TGI [47]: > 100 µM
- TGI [48]: > 100 µM
- TGI [49]: > 100 µM
- TGI [50]: > 100 µM
- TGI [51]: > 100 µM
- TGI [52]: > 100 µM
- TGI [53]: > 100 µM
- TGI [54]: > 100 µM

Compound: S=c1nc2sc3c(c2c(Nc2ccccc2)[nH]1)CCCC3
- TGI [1]: > 100 µM
- TGI [55]: > 100 µM
- TGI [3]: > 100 µM
- TGI [4]: > 100 µM
- TGI [5]: > 100 µM
- TGI [7]: > 100 µM
- TGI [8]: > 100 µM
- TGI [9]: > 100 µM
- TGI [10]: > 100 µM
- TGI [11]: > 100 µM
- TGI [12]: > 100 µM
- TGI [13]: > 100 µM
- TGI [14]: > 100 µM
- TGI [15]: > 100 µM
- TGI [16]: > 100 µM
- TGI [17]: > 100 µM
- TGI [18]: > 100 µM
- TGI [19]: > 100 µM
- TGI [20]: > 100 µM
- TGI [22]: > 100 µM
- TGI [23]: > 100 µM
- TGI [24]: > 100 µM
- TGI [25]: > 100 µM
- TGI [26]: > 100 µM
- TGI [27]: > 100 µM
- TGI [28]: > 100 µM
- TGI [29]: > 100 µM
- TGI [56]: > 100 µM
- TGI [30]: > 100 µM
- TGI [31]: > 100 µM
- TGI [32]: > 100 µM
- TGI [57]: > 100 µM
- TGI [33]: > 100 µM
- TGI [34]: > 100 µM
- TGI [35]: > 100 µM
- TGI [36]: > 100 µM
- TGI [37]: > 100 µM
- TGI [38]: > 100 µM
- TGI [39]: > 100 µM
- TGI [40]: > 100 µM
- TGI [41]: > 100 µM
- TGI [42]: > 100 µM
- TGI [44]: > 100 µM
- TGI [45]: > 100 µM
- TGI [46]: > 100 µM
- TGI [47]: > 100 µM
- TGI [48]: > 100 µM
- TGI [49]: > 100 µM
- TGI [50]: > 100 µM
- TGI [51]: > 100 µM
- TGI [52]: > 100 µM
- TGI [53]: > 100 µM
- TGI [54]: > 100 µM
